Measurements taken from patent US11168086B2, “Methods of synthesizing pyrazine compounds” (Hoffmann-La Roche Inc., priority 2015, dated 2021).

The compounds below were run on HBV (assay: HBV inhibition assay: anti-HBV activity in vitro in HepG2.2.15 cells (extracellular HBV DNA by qPCR)). Conditions: Hepatitis B virus, 120 h, five days after compound treatment, extracellular HBV DNA in culture supernatant by qPCR, concentration at which HBV replication is inhibited by 50%.
Assay type: cell-based
Description: Example 441: HBV Inhibition Assays
Cell Line and Culture Conditions:
HepG2.2.15 is a stably-transfected cell line containing the HBV genome. It is derived from the hepatoblastoma cell line Hep G2 (American Type Culture Collection, ATCC® HB-8065™) by the published procedures described in reference: MA Selles et al. Proc. Natl. Acad. Sci. USA 1987, 84, 1005-1009. The cell line was maintained in Dulbecco's modified Eagle's medium (DMEM)-F12 medium supplemented with 10% fetal bovine serum, 100 U/mL penicillin, 100 μg/mL streptomycin, and 0.5 mg/mL of G418.
Anti-HBV Activity In Vitro:
HepG2.2.15 cells were seeded into 96-well plates (3×10^4 cells in 100 μL media per well) and incubated overnight at 37° C. The test compounds were serially half-log diluted in DMSO, then diluted 100 times in culture media. 100 μL diluted compounds were added into the plates to reach 0.5% final concentration of DMSO in every well. Five days after compound treatment, culture supernatant was collected for further analysis.
For quantitative PCR detection of extracellular HBV DNA, culture supernatant was processed by Proteinase K digestion. After heat inactivation of the enzyme, the samples were subjected to HBV DNA quantification by qPCR. The effective compound concentration at which
HBV replication is inhibited by 50% (EC50) was determined.
With O=C(Nc1ccc(F)c(Cl)c1)N1CCn2ncc(-c3ccc(F)cc3)c2C1 [Example 21, N-(3-chloro-4-fluoro-phenyl)-3-(4-fluorophenyl)-6,7-dihydro-4H-pyrazolo[1,5-a]pyrazine-5-carboxamide] the EC50 was 76 nM. O=C(Nc1ccc(F)c(Cl)c1)N1CCn2ncc(-c3ccccc3F)c2C1 [Example 24, N-(3-chloro-4-fluoro-phenyl)-3-(2-fluorophenyl)-6,7-dihydro-4H-pyrazolo[1,5-a]pyrazine-5-carboxamide] gave an EC50 of 33 nM. For O=C(Nc1cccc(Cl)c1)N1CCn2ncc(-c3ccccc3F)c2C1 [Example 30, N-(3-chlorophenyl)-3-(2-fluorophenyl)-6,7-dihydro-4H-pyrazolo[1,5-a]pyrazine-5-carboxamide], the EC50 was 72 nM. Compound O=C(Nc1ccc(F)cc1)N1CCn2ncc(-c3ccccc3F)c2C1 [Example 33, 3-(2-fluorophenyl)-N-(4-fluorophenyl)-6,7-dihydro-4H-pyrazolo[1,5-a]pyrazine-5-carboxamide] has an EC50 of 85 nM. Work on O=C(Nc1ccc(F)c(C(F)(F)F)c1)N1CCn2ncc(-c3ccccc3F)c2C1 [Example 34, 3-(2-fluorophenyl)-N-[4-fluoro-3-(trifluoromethyl)phenyl]-6,7-dihydro-4H-pyrazolo[1,5-a]pyrazine-5-carboxamide] yielded an EC50 of 52 nM. O=C(Nc1ccc(F)c(Cl)c1)N1CCn2ncc(-c3ccc(F)cc3F)c2C1 [Example 50, N-(3-chloro-4-fluoro-phenyl)-3-(2,4-difluorophenyl)-6,7-dihydro-4H-pyrazolo[1,5-a]pyrazine-5-carboxamide] was tested, and the EC50 was 36 nM. O=C(Nc1cc(F)c(F)c(F)c1)N1CCn2ncc(-c3ccc(F)cc3F)c2C1 [Example 51, 3-(2,4-difluorophenyl)-N-(3,4,5-trifluorophenyl)-6,7-dihydro-4H-pyrazolo[1,5-a]pyrazine-5-carboxamide] was tested, and the EC50 was 68 nM. With CC1Cn2ncc(-c3ccc(F)cc3)c2CN1C(=O)Nc1cc(F)c(F)c(F)c1 (centres unmarked) [Example 53, 3-(4-fluorophenyl)-6-methyl-N-(3,4,5-trifluorophenyl)-6,7-dihydro-4H-pyrazolo[1,5-a]pyrazine-5-carboxamide] the EC50 was 34 nM. CC1Cn2ncc(-c3ccc(F)cc3)c2CN1C(=O)Nc1ccc(F)c(Cl)c1 (centres unmarked) [Example 61, N-(3-chloro-4-fluoro-phenyl)-3-(4-fluorophenyl)-6-methyl-6,7-dihydro-4H-pyrazolo[1,5-a]pyrazine-5-carboxamide] gave an EC50 of 29 nM. With O=C(Nc1ccc(F)c(Cl)c1)N1CCn2ncc(-c3cc(C(F)(F)F)ccn3)c2C1 [Example 67, N-(3-chloro-4-fluoro-phenyl)-3-[4-(trifluoromethyl)-2-pyridyl]-6,7-dihydro-4H-pyrazolo[1,5-a]pyrazine-5-carboxamide] the EC50 was 29 nM. Work on Cc1cc(-c2cnn3c2CN(C(=O)Nc2ccc(F)c(Cl)c2)CC3)ncc1F [Example 68, N-(3-chloro-4-fluoro-phenyl)-3-(5-fluoro-4-methyl-2-pyridyl)-6,7-dihydro-4H-pyrazolo[1,5-a]pyrazine-5-carboxamide] yielded an EC50 of 75 nM. O=C(Nc1ccc(F)c(Cl)c1)N1CCn2ncc(C3CCCCC3)c2C1 [Example 73, N-(3-chloro-4-fluoro-phenyl)-3-cyclohexyl-6,7-dihydro-4H-pyrazolo[1,5-a]pyrazine-5-carboxamide] gave an EC50 of 45 nM. N#Cc1cc(NC(=O)N2CCn3ncc(-c4ccc(F)cn4)c3C2)ccc1F [Example 76, N-(3-cyano-4-fluoro-phenyl)-3-(5-fluoro-2-pyridyl)-6,7-dihydro-4H-pyrazolo[1,5-a]pyrazine-5-carboxamide] was tested, and the EC50 was 95 nM. For O=C(Nc1ccc(F)c(Cl)c1)N1CCn2ncc(C3CCCC3)c2C1 [Example 78, N-(3-chloro-4-fluoro-phenyl)-3-cyclopentyl-6,7-dihydro-4H-pyrazolo[1,5-a]pyrazine-5-carboxamide], the EC50 was 29 nM. N#Cc1cc(NC(=O)N2CCn3ncc(C4CCCC4)c3C2)ccc1F [Example 79, N-(3-cyano-4-fluoro-phenyl)-3-cyclopentyl-6,7-dihydro-4H-pyrazolo[1,5-a]pyrazine-5-carboxamide] gave an EC50 of 28 nM. Work on Cc1cc(NC(=O)N2CCn3ncc(-c4ccc(F)cc4)c3C2)ccc1F [Example 81, N-(4-fluoro-3-methyl-phenyl)-3-(4-fluorophenyl)-6,7-dihydro-4H-pyrazolo[1,5-a]pyrazine-5-carboxamide] yielded an EC50 of 32 nM. CC1Cn2ncc(-c3ccc(F)cc3F)c2CN1C(=O)Nc1ccc(F)c(C#N)c1 (centres unmarked) [Example 85, N-(3-cyano-4-fluoro-phenyl)-3-(2,4-difluorophenyl)-6-methyl-6,7-dihydro-4H-pyrazolo[1,5-a]pyrazine-5-carboxamide] showed an EC50 of 11 nM. CC1Cn2ncc(-c3ccc(F)cc3)c2CN1C(=O)Nc1ccc(F)c(C#N)c1 (centres unmarked) [Example 86, N-(3-cyano-4-fluoro-phenyl)-3-(4-fluorophenyl)-6-methyl-6,7-dihydro-4H-pyrazolo[1,5-a]pyrazine-5-carboxamide] was tested, and the EC50 was 66 nM. With CC1Cn2ncc(-c3ccc(F)cc3F)c2CN1C(=O)Nc1ccc(F)c(Cl)c1 (centres unmarked) [Example 92, N-(3-chloro-4-fluoro-phenyl)-3-(2,4-difluorophenyl)-6-methyl-6,7-dihydro-4H-pyrazolo[1,5-a]pyrazine-5-carboxamide] the EC50 was 13 nM. CC1Cn2ncc(-c3ccc(F)cn3)c2CN1C(=O)Nc1ccc(F)c(Cl)c1 (centres unmarked) [Example 94, N-(3-chloro-4-fluoro-phenyl)-3-(5-fluoro-2-pyridyl)-6-methyl-6,7-dihydro-4H-pyrazolo[1,5-a]pyrazine-5-carboxamide] was tested, and the EC50 was 33 nM. With CC1Cn2ncc(C3CCCC3)c2CN1C(=O)Nc1ccnc(Cl)c1 (centres unmarked) [Example 96, N-(2-chloro-4-pyridyl)-3-cyclopentyl-6-methyl-6,7-dihydro-4H-pyrazolo[1,5-a]pyrazine-5-carboxamide] the EC50 was 72 nM. With CC1Cn2ncc(-c3ccc(F)cn3)c2CN1C(=O)Nc1cc(F)c(F)c(F)c1 (centres unmarked) [Example 99, 3-(5-fluoro-2-pyridyl)-6-methyl-N-(3,4,5-trifluorophenyl)-6,7-dihydro-4H-pyrazolo[1,5-a]pyrazine-5-carboxamide] the EC50 was 24 nM. CC1Cn2ncc(-c3ccc(F)cn3)c2CN1C(=O)Nc1ccc(F)c(C#N)c1 (centres unmarked) [Example 100, N-(3-cyano-4-fluoro-phenyl)-3-(5-fluoro-2-pyridyl)-6-methyl-6,7-dihydro-4H-pyrazolo[1,5-a]pyrazine-5-carboxamide] gave an EC50 of 61 nM. Compound C[C@H]1Cn2ncc(-c3ccc(F)cc3)c2CN1C(=O)Nc1ccc(F)c(Cl)c1 [Example 102, (6S)—N-(3-chloro-4-fluoro-phenyl)-3-(4-fluorophenyl)-6-methyl-6,7-dihydro-4H-pyrazolo[1,5-a]pyrazine-5-carboxamide] has an EC50 of 14 nM. Compound C#Cc1cc(NC(=O)N2CCn3ncc(-c4ccc(F)cc4)c3C2)ccc1F [Example 122, N-(3-ethynyl-4-fluoro-phenyl)-3-(4-fluorophenyl)-6,7-dihydro-4H-pyrazolo[1,5-a]pyrazine-5-carboxamide] has an EC50 of 93 nM. With O=C(Nc1ccc(F)c(Cl)c1)N1CCn2cnc(-c3ccc(F)cc3)c2C1 [Example 127, N-(3-chloro-4-fluoro-phenyl)-1-(4-fluorophenyl)-6,8-dihydro-5H-imidazo[1,5-a]pyrazine-7-carboxamide] the EC50 was 86 nM. C#Cc1cc(NC(=O)N2CCn3cnc(-c4ccc(F)cc4F)c3C2)ccc1F [Example 134, 1-(2,4-difluorophenyl)-N-(3-ethynyl-4-fluoro-phenyl)-6,8-dihydro-5H-imidazo[1,5-a]pyrazine-7-carboxamide] was tested, and the EC50 was 85 nM. O=C(Nc1ccc(F)c(Cl)c1)N1CCn2cnc(-c3ccc(F)cc3F)c2C1 [Example 135, N-(3-chloro-4-fluoro-phenyl)-1-(2,4-difluorophenyl)-6,8-dihydro-5H-imidazo[1,5-a]pyrazine-7-carboxamide] was tested, and the EC50 was 23 nM.

Same assay, conditions: five days after compound treatment, extracellular HBV DNA in culture supernatant by qPCR, concentration at which HBV replication is inhibited by 50%
Compound CC1C(C#N)CC(=O)N1c1cnn2c1CN(C(=O)Nc1cc(F)c(F)c(F)c1)[C@@H](C)C2 (single isomer, unassigned) [Example 420-1] has an EC50 of 27 nM. CC1C(C#N)CC(=O)N1c1cnn2c1CN(C(=O)Nc1cc(F)c(F)c(F)c1)[C@@H](C)C2 (single isomer, unassigned) [Example 420-2] showed an EC50 of 30 nM. Compound CC1C(C#N)CC(=O)N1c1cnn2c1CN(C(=O)Nc1cc(F)c(F)c(F)c1)[C@@H](C)C2 (single isomer, unassigned) [Example 420-3] has an EC50 of 3 nM. Work on C[C@H]1Cn2ncc(N3CC(c4ccccc4)C(O)C3=O)c2CN1C(=O)Nc1cc(F)c(F)c(F)c1 (single isomer, unassigned) [Example 438-1] yielded an EC50 of 10 nM. In the case of C[C@H]1Cn2ncc(N3CC(c4ccccc4)C(O)C3=O)c2CN1C(=O)Nc1cc(F)c(F)c(F)c1 (single isomer, unassigned) [Example 438-2], the EC50 is reported as 108 nM. For C[C@H]1Cn2ncc(N3CC(c4ccccc4)C(O)C3=O)c2CN1C(=O)Nc1cc(F)c(F)c(F)c1 (single isomer, unassigned) [Example 438-3], the EC50 was 44 nM. Compound C[C@H]1Cn2ncc(N3CC(c4ccccc4)C(O)C3=O)c2CN1C(=O)Nc1cc(F)c(F)c(F)c1 (single isomer, unassigned) [Example 438-4] has an EC50 of 10 nM.
